Source: ChEMBL document CHEMBL1128136, “and -N-[(1-benzyl-1H-imidazol-5-yl)-alkyl]-amino acids as angiotensin II AT-1 antagonists” (Bioorg Med Chem Lett, 1995)

How the values were obtained:
[1] = biological target: T1, Angiotensin II receptor (AT-1) type-1 (Rattus norvegicus, UniProt P29089+P25095); assay: Compound was tested for inhibition of 125 I-Angiotensin II specific binding to rat mesenteric arteries; type: protein assay
T1 sequence (P29089 whole entry): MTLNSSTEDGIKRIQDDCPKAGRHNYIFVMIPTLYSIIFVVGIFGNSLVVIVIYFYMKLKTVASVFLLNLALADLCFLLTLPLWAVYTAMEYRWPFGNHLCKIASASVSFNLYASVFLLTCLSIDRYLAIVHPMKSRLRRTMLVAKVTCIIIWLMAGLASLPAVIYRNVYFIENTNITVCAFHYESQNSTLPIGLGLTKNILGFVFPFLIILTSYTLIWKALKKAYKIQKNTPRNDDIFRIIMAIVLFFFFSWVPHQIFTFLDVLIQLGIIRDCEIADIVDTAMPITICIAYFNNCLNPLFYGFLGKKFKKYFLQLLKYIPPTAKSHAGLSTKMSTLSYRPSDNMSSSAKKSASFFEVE
T1 sequence (P25095 whole entry): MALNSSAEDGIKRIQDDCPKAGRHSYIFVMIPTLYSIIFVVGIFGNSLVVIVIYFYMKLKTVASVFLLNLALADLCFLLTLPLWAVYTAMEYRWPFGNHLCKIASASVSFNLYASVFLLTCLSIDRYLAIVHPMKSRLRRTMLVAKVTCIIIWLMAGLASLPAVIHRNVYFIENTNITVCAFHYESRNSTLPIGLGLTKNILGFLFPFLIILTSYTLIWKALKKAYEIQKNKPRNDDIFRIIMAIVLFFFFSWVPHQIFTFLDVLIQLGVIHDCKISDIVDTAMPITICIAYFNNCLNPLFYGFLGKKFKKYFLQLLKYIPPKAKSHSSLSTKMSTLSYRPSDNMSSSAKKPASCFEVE

Oryctolagus cuniculus [2] = organism: Oryctolagus cuniculus; assay: Compound was tested for inhibition of Angiotensin II-induced vasoconstriction of rabbit aorta.; type: functional
Oryctolagus cuniculus [3] = organism: Oryctolagus cuniculus; assay: Compound was tested for Non-competitive inhibition ofAngiotensin II -induced vasoconstriction of rabbit aorta.; type: functional
[4] = biological target: T2, Type-1 angiotensin II receptor (Homo sapiens, UniProt P30556); assay: Tested for inhibition of Angiotensin II specific binding to Angiotensin II receptor, type 1 in the recombinant human AT-1 receptor expressed in LhAT-1D6 cells; type: cell-based
T2 sequence (P30556 whole entry): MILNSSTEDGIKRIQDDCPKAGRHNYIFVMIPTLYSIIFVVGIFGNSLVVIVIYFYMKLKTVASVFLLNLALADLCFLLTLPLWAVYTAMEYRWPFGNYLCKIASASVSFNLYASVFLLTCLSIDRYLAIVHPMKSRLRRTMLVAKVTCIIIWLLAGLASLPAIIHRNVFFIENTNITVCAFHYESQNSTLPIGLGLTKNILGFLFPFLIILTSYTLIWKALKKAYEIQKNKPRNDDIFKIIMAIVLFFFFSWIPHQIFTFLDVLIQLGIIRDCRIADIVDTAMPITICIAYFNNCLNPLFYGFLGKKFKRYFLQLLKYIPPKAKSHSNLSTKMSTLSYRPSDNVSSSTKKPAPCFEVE

SMILES	IC50 [1] [µM]	Kb (Oryctolagus cuniculus [2]) [µM]	Kb (Oryctolagus cuniculus [3]) [µM]	IC50 [4] [µM]
CCCCc1ncc(CN[C@@H](Cc2ccccc2)C(=O)O)n1Cc1ccc(C(=O)O)cc1	0.517	0.125		
CCCCc1ncc(CN[C@@H](Cc2cccs2)C(=O)O)n1Cc1ccc(C(=O)O)cc1	0.673	0.063		
CCCCc1ncc(CN[C@@H](C(=O)O)C(C)c2ccccc2)n1Cc1ccc(C(=O)O)cc1 (stereo partly drawn)	0.028		0.0006	
CCCCc1ncc(CN(CC(=O)O)Cc2cccs2)n1Cc1ccc(C(=O)O)cc1	0.169	0.0024		
CCCCc1ncc(CN[C@@H](Cc2c[nH]c3ccccc23)C(=O)O)n1Cc1ccc(C(=O)O)cc1		0.885		0.0483
CCCCc1ncc(/C=C(\Cc2cccs2)C(=O)O)n1Cc1ccc(C(=O)O)cc1 [EPROSARTAN]		0.00021		
CCCCc1ncc(CN(CC(=O)O)Cc2ccccc2)n1Cc1ccc(C(=O)O)cc1	0.031	0.011		
CCCCc1ncc(CNCC(=O)O)n1Cc1ccc(C(=O)O)cc1		0.335		0.298
CCCCc1ncc(CN[C@H](Cc2ccccc2)C(=O)O)n1Cc1ccc(C(=O)O)cc1	0.0038	0.0036		
CCCCc1ncc(CN[C@H](Cc2cccs2)C(=O)O)n1Cc1ccc(C(=O)O)cc1	0.0367	0.005		
CCCCc1ncc(CN[C@H](C(=O)O)C(C)c2ccccc2)n1Cc1ccc(C(=O)O)cc1 (stereo partly drawn)	0.176	0.117		
CCCCc1ncc(CN[C@H](Cc2c[nH]c3ccccc23)C(=O)O)n1Cc1ccc(C(=O)O)cc1		0.048		0.0029
